The values below come from PubChem BioAssay (NCI).

Test systems include A498 renal; ACHN renal; HL-60(TB) leukemia; MALME-3M melanoma; NCI-H522 lung; RXF 393 renal; SF-268 CNS; SF-539 CNS; SR leukemia; UACC-257 melanoma.
What all share (assay): DTP human tumour cell line panel, 48 h

“And” between values parts separate entries of the source, which are not always exact repeats. Identical values can stand only once.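 Compound exposure: 48 hours, 5 concentrations, 96-well plates. GI50 is the concentration that inhibits growth by half. At the TGI there is no net growth.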

In general, GI50 refers to the concentration at which growth is held to half of that of the control. Broadly, the TGI is the concentration giving total growth inhibition. A low value points to greater sensitivity of the cells. On to `Cc1cc(C)c(/C=C2\C(=O)Nc3ccc(NC(=O)CCCCCCC(=O)NO)cc32)[nH]1`, for which the GI50 was 1.4 µM with A498 renal; 6.18 µM with ACHN renal; 0.506 µM with HL-60(TB) leukemia; 0.237 µM with MALME-3M melanoma; 0.208 µM with NCI-H522 lung; 1.17 µM with RXF 393 renal. For the same compound, the GI50 was 1.62 µM in the experiment on SF-268 CNS, 0.521 µM with SF-539 CNS, 0.416 µM in the experiment on SR leukemia and 0.418 µM in the experiment on UACC-257 melanoma. For the same compound, the concentration for total growth inhibition (TGI) is 18.2 µM in the experiment on A498 renal; over 100 µM in the experiment with ACHN renal; over 100 µM in the experiment with HL-60(TB) leukemia; over 27.4 µM with MALME-3M melanoma; 1.82 µM in the experiment on NCI-H522 lung; over 75.2 µM in the experiment on RXF 393 renal. In addition, the TGI in the experiment on SF-268 CNS, in the experiment with SF-539 CNS, with SR leukemia and with UACC-257 melanoma was over 100 µM throughout.
With `Cc1nc(-[n+]2nc(-c3ccncc3)nn2-c2ccccc2)sc1C`, the TGI in the experiment on A498 renal is over 100 µM; in the experiment with ACHN renal it was over 100 µM; with HL-60(TB) leukemia it was over 100 µM; in the experiment on MALME-3M melanoma, over 100 µM; in the experiment with NCI-H522 lung, 76.5 µM; in the experiment on RXF 393 renal, 45.9 µM. For the same compound, the total growth inhibition concentration (TGI) with SF-268 CNS is over 100 µM; in the experiment on SF-539 CNS, 69.2 µM; in the experiment on SR leukemia it was over 100 µM; in the experiment with UACC-257 melanoma, over 100 µM.
With `CC(C)(S)C(N)C(=O)O` (centres undefined), the TGI in the experiment with A498 renal is over 100 µM; in the experiment with ACHN renal, over 5000 µM; in the experiment on HL-60(TB) leukemia, over 5000 µM; in the experiment with MALME-3M melanoma, 3400 µM and > 100 µM; with NCI-H522 lung, over 5000 µM; in the experiment with RXF 393 renal, over 5000 µM. The TGI with SF-268 CNS is over 5000 µM; in the experiment with SF-539 CNS it was 4370 µM and > 100 µM; in the experiment with SR leukemia it was over 5000 µM; in the experiment with UACC-257 melanoma, over 5000 µM. Moreover, the GI50 in the experiment with ACHN renal was over 5000 µM; in the experiment on HL-60(TB) leukemia, 3640 µM; in the experiment on MALME-3M melanoma, 1130 µM; with NCI-H522 lung, 4600 µM; in the experiment with RXF 393 renal, over 5000 µM; in the experiment with SF-268 CNS, 1740 µM. The GI50 was 1420 µM in the experiment with SF-539 CNS, 1840 µM in the experiment with SR leukemia and 4860 µM in the experiment on UACC-257 melanoma.
Consider `COC(=O)[C@H]1C=C[C@@H](C)n2c(=O)c3cc4ccccc4cc3c(=O)n21`, for which the TGI with A498 renal, in the experiment with ACHN renal, with HL-60(TB) leukemia, with MALME-3M melanoma, with NCI-H522 lung and with RXF 393 renal was over 100 µM in each case. Also, the total growth inhibition concentration (TGI) with SF-268 CNS, with SF-539 CNS, in the experiment on SR leukemia and with UACC-257 melanoma was over 100 µM in each case.
Take `[N-]=[N+]=Nc1cc(=O)[nH]nc1-c1ccccc1`: the total growth inhibition concentration (TGI) in the experiment on A498 renal, with ACHN renal, with HL-60(TB) leukemia, in the experiment on MALME-3M melanoma, in the experiment on NCI-H522 lung and in the experiment on RXF 393 renal was over 100 µM throughout. Besides, the total growth inhibition concentration (TGI) with SF-268 CNS, with SF-539 CNS, with SR leukemia and with UACC-257 melanoma was over 100 µM in each case.
For `C#COc1cccc(Nc2c(C#N)cnc3ncc(NC(=O)CCl)cc23)c1`, the GI50 in the experiment on A498 renal was 45.8 µM; in the experiment on ACHN renal, 22.9 µM; in the experiment on HL-60(TB) leukemia, 41 µM; in the experiment with MALME-3M melanoma, 55.4 µM; in the experiment with NCI-H522 lung, 9.77 µM; with RXF 393 renal it was over 62.5 µM. For the same compound, the GI50 in the experiment on SF-268 CNS was 20.6 µM; in the experiment with SF-539 CNS it was 13.9 µM; in the experiment with SR leukemia, 17.6 µM; in the experiment on UACC-257 melanoma it was over 62.5 µM. In addition, the TGI was over 62.5 µM with A498 renal; over 62.5 µM in the experiment with ACHN renal; over 62.5 µM in the experiment with HL-60(TB) leukemia; over 62.5 µM in the experiment on MALME-3M melanoma; 21.4 µM with NCI-H522 lung; over 62.5 µM with RXF 393 renal. Besides, the TGI in the experiment on SF-268 CNS was over 62.5 µM; with SF-539 CNS, 37.6 µM; with SR leukemia, over 62.5 µM; in the experiment with UACC-257 melanoma, over 62.5 µM.
With `CCOC(=O)/C=C(/C)Sc1cc(O)c2ccccc2c1O`, the GI50 in the experiment on A498 renal was 22.8 µM; in the experiment with ACHN renal, 2.78 µM; with HL-60(TB) leukemia it was 2.29 µM; with MALME-3M melanoma it was 1.93 µM; with NCI-H522 lung, 1.73 µM; in the experiment on RXF 393 renal, 2.28 µM. The GI50 with SF-268 CNS is 4.24 µM; in the experiment on SF-539 CNS it was 4.84 µM; in the experiment with SR leukemia, 1.3 µM; in the experiment with UACC-257 melanoma, 1.8 µM. Further, the TGI is 56.3 µM with A498 renal; 9.82 µM in the experiment with ACHN renal; 5.72 µM with HL-60(TB) leukemia; 3.71 µM in the experiment on MALME-3M melanoma; 4.66 µM in the experiment on NCI-H522 lung; 6.34 µM in the experiment with RXF 393 renal. Further, the concentration for total growth inhibition (TGI) in the experiment with SF-268 CNS was 14.6 µM; in the experiment with SF-539 CNS it was 11.7 µM; with SR leukemia it was 4.16 µM; in the experiment with UACC-257 melanoma, 3.87 µM.
With `C1=C\COCc2cc(ccc2OCCN2CCCC2)Nc2nccc(n2)-c2cccc(c2)COC/1`, the GI50 in the experiment with A498 renal was 1.86 µM; in the experiment with ACHN renal it was 1.12 µM; in the experiment on HL-60(TB) leukemia, 1.28 µM; with MALME-3M melanoma it was 2.13 µM; with NCI-H522 lung it was 3.08 µM; in the experiment on RXF 393 renal, 1.05 µM. Moreover, the GI50 in the experiment on SF-268 CNS was 2.03 µM; in the experiment with SF-539 CNS it was 3.11 µM; with SR leukemia it was 0.306 µM; with UACC-257 melanoma, 2.53 µM. Further, the TGI in the experiment on A498 renal was determined as 5.32 µM; in the experiment on ACHN renal it was 4.8 µM; in the experiment on HL-60(TB) leukemia, 4.79 µM; in the experiment with MALME-3M melanoma it was 5.32 µM; in the experiment with NCI-H522 lung, 5.23 µM; in the experiment with RXF 393 renal, 2.9 µM. In addition, the TGI stood at 5.77 µM in the experiment on SF-268 CNS, 5.71 µM in the experiment with SF-539 CNS, 1.62 µM in the experiment on SR leukemia and 5.66 µM with UACC-257 melanoma.
Take `OCc1ccn2c1[C@@H](O)CC2`: the TGI in the experiment with A498 renal, in the experiment with ACHN renal, with HL-60(TB) leukemia, with MALME-3M melanoma, in the experiment on NCI-H522 lung and with RXF 393 renal was over 100 µM throughout. The TGI in the experiment with SF-268 CNS, with SF-539 CNS, in the experiment on SR leukemia and in the experiment on UACC-257 melanoma was over 100 µM each time.
